Values after ≈ are worked out from the molar mass of the structure shown. Where two headings read alike, the source gives them in different places. Starred links: 1 amine or outer side, 2 acyl side, 3 side chain; linkers in the order of their positions; H or OH if unused. Positions of bridges follow the written chain, without caps; N, C: chain ends. Non-standard residues stand in square brackets, D forms with d. Residues, ends and D or L forms follow the SMILES beside them. *: point of attachment. hTyr(3S-OH,4S-OH,3'-OSO3H) = N[C@H](C(=O)O)[C@H](O)[C@@H](O)c1ccc(O)c(OS(=O)(=O)O)c1; pTerphenylCO(4''-OnC5H11) = CCCCCOc1ccc(-c2ccc(-c3ccc(C(=O)*)cc3)cc2)cc1; Orn(4R-OH,5R-OH) = O=C([C@H](C[C@@H](O)[C@@H](O)N[*:3])N[*:1])[*:2]; hTyr(3S-OH,4S-OH) = N[C@H](C(=O)O)[C@H](O)[C@@H](O)c1ccc(O)cc1; Pro(3S-OH,4S-Me) = C[C@H]1CN[C@H](C(=O)O)[C@H]1O; X1 = CCCCCOc1ccc(-c2cc(-c3ccc(C(=O)*)cc3)no2)cc1; Gln(3R-OH) = NC(=O)C[C@@H](O)[C@H](N)C(=O)O; Hyp = O=C(O)[C@@H]1C[C@@H](O)CN1
Tests used:
C. auris CDC #0389 = test: MIC against C. auris CDC #0389; assay type: cell-based, Candida auris; conditions: for MIC: Candidozyma auris, read-out: minimum inhibitory concentration (MIC)
Method: (§1) Direct bioactivity screening experiments of CHM-752 are performed against Candida pathogens (Table 13).

C. auris CDC #0383 = test: MIC against C. auris CDC #0383; assay type: cell-based, Candida auris; conditions: for MIC: Candidozyma auris, read-out: minimum inhibitory concentration (MIC)
Method: as §1

C. glabrata CDC #0318 = test: MIC against C. glabrata CDC #0318; assay type: cell-based; conditions: for MIC: Nakaseomyces glabratus, read-out: minimum inhibitory concentration (MIC)
Method: as §1

C. albicans ATCC 90028 = test: MIC against C. albicans ATCC 90028; assay type: cell-based, Candida albicans; conditions: for MIC: Candida albicans
Method: as §1

C. auris CDC #0387 = test: MIC against C. auris CDC #0387; assay type: cell-based, Candida auris; conditions: for MIC: Candidozyma auris, read-out: minimum inhibitory concentration (MIC)
Method: as §1

C. glabrata CDC #0321 = test: MIC against C. glabrata CDC #0321; assay type: cell-based; conditions: for MIC: Nakaseomyces glabratus, read-out: minimum inhibitory concentration (MIC)
Method: as §1

C. glabrata CDC #0325 = test: MIC against C. glabrata CDC #0325; assay type: cell-based; conditions: for MIC: Nakaseomyces glabratus, read-out: minimum inhibitory concentration (MIC)
Method: as §1

C. albicans MYA-574 = test: MIC against C. albicans MYA-574; assay type: cell-based, Candida albicans; conditions: for MIC: Candida albicans
Method: as §1

C. glabrata ATCC 36583 = test: MIC against C. glabrata ATCC 36583; assay type: cell-based; conditions: for MIC: Nakaseomyces glabratus, ATCC36583, read-out: minimum inhibitory concentration (MIC)
Method: as §1

C. glabrata CDC #0315 = test: MIC against C. glabrata CDC #0315; assay type: cell-based; conditions: for MIC: Nakaseomyces glabratus, read-out: minimum inhibitory concentration (MIC)
Method: as §1

C. auris CDC #0381 = test: MIC against C. auris CDC #0381; assay type: cell-based, Candida auris; conditions: for MIC: Candidozyma auris, read-out: minimum inhibitory concentration (MIC)
Method: as §1

C. auris CDC #0384 = test: MIC against C. auris CDC #0384; assay type: cell-based, Candida auris; conditions: for MIC: Candidozyma auris, read-out: minimum inhibitory concentration (MIC)
Method: as §1

C. auris CDC #0385 = test: MIC against C. auris CDC #0385; assay type: cell-based, Candida auris; conditions: for MIC: Candidozyma auris, read-out: minimum inhibitory concentration (MIC)
Method: as §1

C. auris CDC #0390 = test: MIC against C. auris CDC #0390; assay type: cell-based, Candida auris; conditions: for MIC: Candidozyma auris, read-out: minimum inhibitory concentration (MIC)
Method: as §1

[1] = ATCC90028, C. albicans ATCC 90028, read-out: minimum inhibitory concentration (MIC)
[2] = MYA574, C. albicans MYA-574, read-out: minimum inhibitory concentration (MIC)
[3] = ATCC90028, read-out: minimum inhibitory concentration (MIC)

Row | SMILES | MIC (C. auris CDC #0389; C. auris CDC #0389) | MIC (C. auris CDC #0383; C. auris CDC #0383) | MIC (C. glabrata CDC #0318; C. glabrata CDC #0318) | MIC (C. albicans ATCC 90028; [1]) | MIC (C. auris CDC #0387; C. auris CDC #0387) | MIC (C. glabrata CDC #0321; C. glabrata CDC #0321) | MIC (C. glabrata CDC #0325; C. glabrata CDC #0325) | MIC (C. albicans MYA-574; [2]) | MIC (C. glabrata ATCC 36583) | MIC (C. glabrata CDC #0315; C. glabrata CDC #0315) | MIC (C. auris CDC #0381; C. auris CDC #0381) | MIC (C. auris CDC #0384; C. auris CDC #0384) | MIC (C. auris CDC #0385; C. auris CDC #0385) | MIC (C. auris CDC #0390; C. auris CDC #0390) | MIC (C. auris CDC #0389) | MIC (C. auris CDC #0383) | MIC (C. glabrata CDC #0318) | MIC (C. albicans ATCC 90028; [3]) | MIC (C. auris CDC #0387) | MIC (C. glabrata CDC #0321) | other results
1 | CC[C@H](C)C[C@H](C)CCCCCCCCC(=O)N[C@H]1C[C@@H](O)[C@@H](NCCN)NC(=O)[C@@H]2[C@@H](O)CCN2C(=O)[C@H]([C@H](O)CCN)NC(=O)[C@H]([C@H](O)[C@@H](O)c2ccc(O)cc2)NC(=O)[C@@H]2C[C@@H](O)CN2C(=O)[C@H]([C@@H](C)O)NC1=O [CAS, Caspofungin] | 0.5 µg/mL (≈ 0.457 µM) | 0.25 µg/mL (≈ 0.229 µM) | 16 µg/mL (≈ 14.6 µM) | 0.5 µg/mL (≈ 0.457 µM) | 0.25 µg/mL (≈ 0.229 µM) | 4 µg/mL (≈ 3.66 µM) | > 16 µg/mL | 0.5 µg/mL (≈ 0.457 µM) | 0.5 µg/mL (≈ 0.457 µM) | 16 µg/mL (≈ 14.6 µM) | 0.13 µg/mL (≈ 0.119 µM) | 16 µg/mL (≈ 14.6 µM) | 0.5 µg/mL (≈ 0.457 µM) | 0.5 µg/mL (≈ 0.457 µM) |  |  |  |  |  |  | 
2 | CCCCCOc1ccc(-c2ccc(-c3ccc(C(=O)N[C@H]4C[C@@H](O)[C@@H](O)NC(=O)[C@@H]5[C@@H](O)[C@@H](C)CN5C(=O)[C@H]([C@@H](C)O)NC(=O)[C@H]([C@H](O)[C@@H](O)c5ccc(O)cc5)NC(=O)[C@@H]5C[C@@H](O)CN5C(=O)[C@H]([C@@H](C)O)NC4=O)cc3)cc2)cc1 [ANI, Anidulafungin] ({pTerphenylCO(4''-OnC5H11)}-[Orn(4R-OH,5R-OH)]T[Hyp][hTyr(3S-OH,4S-OH)]T[Pro(3S-OH,4S-Me)]; lactam 1-C) |  |  |  |  |  |  |  |  |  |  |  |  |  |  | 1 µg/mL (≈ 0.877 µM) | 1 µg/mL (≈ 0.877 µM) | 4 µg/mL (≈ 3.51 µM) | 0.01 µg/mL (≈ 0.00877 µM) | 0.5 µg/mL (≈ 0.438 µM) | 2 µg/mL (≈ 1.75 µM) | MIC (C. glabrata CDC #0325): 4 µg/mL (≈ 3.51 µM); MIC (C. glabrata CDC #0315): 2 µg/mL (≈ 1.75 µM); MIC (C. auris CDC #0381): 0.25 µg/mL (≈ 0.219 µM); MIC (C. auris CDC #0384): 2 µg/mL (≈ 1.75 µM); MIC (C. auris CDC #0385): 1 µg/mL (≈ 0.877 µM); MIC (C. auris CDC #0390): 1 µg/mL (≈ 0.877 µM)
3 | C[C@@H](c1ncncc1F)[C@](O)(Cn1cncn1)c1ccc(F)cc1F [VRC, Voriconazole] | 0.4 µg/mL (≈ 1.15 µM) | 4 µg/mL (≈ 11.5 µM) | 1 µg/mL (≈ 2.86 µM) | 0.01 µg/mL (≈ 0.0286 µM) | 0.06 µg/mL (≈ 0.172 µM) | 2 µg/mL (≈ 5.73 µM) | 16 µg/mL (≈ 45.8 µM) | 0.25 µg/mL (≈ 0.716 µM) | 0.5 µg/mL (≈ 1.43 µM) | 0.25 µg/mL (≈ 0.716 µM) | 0.03 µg/mL (≈ 0.0859 µM) | 1 µg/mL (≈ 2.86 µM) | 16 µg/mL (≈ 45.8 µM) | 8 µg/mL (≈ 22.9 µM) |  |  |  |  |  |  | 
4 | OC(Cn1cncn1)(Cn1cncn1)c1ccc(F)cc1F [FLC, Fluconazole] | 256 µg/mL (≈ 836 µM) | 128 µg/mL (≈ 418 µM) | 32 µg/mL (≈ 104 µM) | 0.25 µg/mL (≈ 0.816 µM) | 8 µg/mL (≈ 26.1 µM) | 64 µg/mL (≈ 209 µM) | 128 µg/mL (≈ 418 µM) | 64 µg/mL (≈ 209 µM) | 8 µg/mL (≈ 26.1 µM) | 4 µg/mL (≈ 13.1 µM) | 4 µg/mL (≈ 13.1 µM) | 128 µg/mL (≈ 418 µM) | > 256 µg/mL | > 256 µg/mL |  |  |  |  |  |  | 
5 | CCCCCOc1ccc(-c2cc(-c3ccc(C(=O)N[C@H]4C[C@@H](O)[C@@H](O)NC(=O)[C@@H]5[C@@H](O)[C@@H](C)CN5C(=O)[C@H]([C@H](O)CC(N)=O)NC(=O)[C@H]([C@H](O)[C@@H](O)c5ccc(O)c(OS(=O)(=O)O)c5)NC(=O)[C@@H]5C[C@@H](O)CN5C(=O)[C@H]([C@@H](C)O)NC4=O)cc3)no2)cc1 [MF, Micafungin] (X1-[Orn(4R-OH,5R-OH)]T[Hyp][hTyr(3S-OH,4S-OH,3'-OSO3H)][Gln(3R-OH)][Pro(3S-OH,4S-Me)]; lactam 1-C) |  |  |  |  |  |  |  |  |  |  |  |  |  |  | 0.25 µg/mL (≈ 0.197 µM) | 1 µg/mL (≈ 0.787 µM) | 4 µg/mL (≈ 3.15 µM) | 0.02 µg/mL (≈ 0.0157 µM) | 0.5 µg/mL (≈ 0.394 µM) | 1 µg/mL (≈ 0.787 µM) | MIC (C. glabrata CDC #0325): 4 µg/mL (≈ 3.15 µM); MIC (C. albicans MYA-574; MYA574, read-out: minimum inhibitory concentration (MIC)): 0.06 µg/mL (≈ 0.0472 µM); MIC (C. glabrata CDC #0315): 4 µg/mL (≈ 3.15 µM); MIC (C. auris CDC #0381): 0.13 µg/mL (≈ 0.102 µM); MIC (C. auris CDC #0384): 2 µg/mL (≈ 1.57 µM); MIC (C. auris CDC #0385): 0.5 µg/mL (≈ 0.394 µM); MIC (C. auris CDC #0390): 0.25 µg/mL (≈ 0.197 µM)
6 | C[C@@H]1[C@H](O)[C@@H](C)/C=C/C=C/C=C/C=C/C=C/C=C/C=C/[C@H](O[C@@H]2O[C@H](C)[C@@H](O)[C@H](N)[C@@H]2O)C[C@@H]2O[C@](O)(C[C@@H](O)C[C@@H](O)[C@H](O)CC[C@@H](O)C[C@@H](O)CC(=O)O[C@H]1C)C[C@H](O)[C@H]2C(=O)O [AMP, Amphotericin B] |  |  |  |  |  |  |  |  |  |  |  |  |  |  |  |  |  |  |  |  | minimum inhibitory concentration (MIC) (C. auris CDC #0389; C. auris CDC #0389): 4 µg/mL (≈ 4.33 µM); minimum inhibitory concentration (MIC) (C. auris CDC #0383; C. auris CDC #0383): 0.38 µg/mL (≈ 0.411 µM); minimum inhibitory concentration (MIC) (C. glabrata CDC #0318; C. glabrata CDC #0318): 0.19 µg/mL (≈ 0.206 µM); minimum inhibitory concentration (MIC) (C. albicans ATCC 90028; C. albicans ATCC 90028): 0.13 µg/mL (≈ 0.141 µM); minimum inhibitory concentration (MIC) (C. auris CDC #0387; C. auris CDC #0387): 0.75 µg/mL (≈ 0.812 µM); minimum inhibitory concentration (MIC) (C. glabrata CDC #0321; C. glabrata CDC #0321): 0.09 µg/mL (≈ 0.0974 µM); minimum inhibitory concentration (MIC) (C. glabrata CDC #0325; C. glabrata CDC #0325): 0.25 µg/mL (≈ 0.271 µM); minimum inhibitory concentration (MIC) (C. albicans MYA-574; C. albicans MYA-574): 0.13 µg/mL (≈ 0.141 µM); minimum inhibitory concentration (MIC) (C. glabrata ATCC 36583): 0.13 µg/mL (≈ 0.141 µM); minimum inhibitory concentration (MIC) (C. glabrata CDC #0315; C. glabrata CDC #0315): 0.38 µg/mL (≈ 0.411 µM); minimum inhibitory concentration (MIC) (C. auris CDC #0381; C. auris CDC #0381): 0.13 µg/mL (≈ 0.141 µM); minimum inhibitory concentration (MIC) (C. auris CDC #0384; C. auris CDC #0384): 0.5 µg/mL (≈ 0.541 µM); minimum inhibitory concentration (MIC) (C. auris CDC #0385; C. auris CDC #0385): 0.5 µg/mL (≈ 0.541 µM); minimum inhibitory concentration (MIC) (C. auris CDC #0390; C. auris CDC #0390): 4 µg/mL (≈ 4.33 µM)

From patent US12712052B2, “Method and system to identify natural products from mass spectrometry and genomics data” (priority 2021, dated 2026)
